Assay results as given in patent US4820695A, “C-20-dihydro-deoxy-(cyclic amino)-derivatives of macrolide antibiotics” (priority 1987, dated 1989).
Converted amounts (≈) assume the structure as drawn. Read-outs that look alike come from different tables or passages of the source.

Legend:
Pasteurella multocida [1] = test: Pasteurella infection in one-day-old chicks, subcutaneous administration (Table XII); assay type: in vivo; conditions: Administered subcutaneously, 30 mg/kg × 2, 1 and 4 hours post-challenge
Experimental: (§1) Many of the C-20 modified derivatives of this invention have also shown in vivo antibacterial activity against infections induced by gram-negative bacteria. Tables XII and XIII summarize the results of tests in which illustrative compounds were evaluated against a Pasteurella infection in one-day-old chicks. The compounds were administered parenterally or orally after challenge of the chicks with Pasteurella multocida (0.1 ml of a 10^-4 dilution of a twenty-hour tryptose broth culture of an avian P. multocida given subcutaneously). In these tests, unless indicated otherwise, all non-medicated infected chicks died within 24 hours of Pasteurella challenge. In the tests summarized in Table XII, the compounds were administered by subcutaneous injection at a dosage of 30 mg/kg, 1 and 4 hours post-challenge of the chicks with P. multocida. In the tests summarized in Table XIII the compounds were administered in medicated drinking water (at a level of 2 g/gal) available from 4 to 20 hours prior to challenge of the chicks with P. multocida and during the 3 -day test period.
^a Administered subcutaneously; 30 mg/kg × 2

Pasteurella multocida [2] = test: Pasteurella infection in one-day-old chicks, medicated drinking water (Table XIII); assay type: in vivo; conditions: Administered in the available drinking water at 2 g/gal
Experimental: as §1
^a Administered in the available drinking water at a concentration of […]

Staphyloccus aureus X1.1 = test: MIC, standard agar-dilution assay (Table IX); assay type: cell-based, Staphylococcus aureus; conditions: Staphylococcus aureus, read-out: MIC
[3] = system: Staphylococcus aureus V41; test: MIC, standard agar-dilution assay (Table IX); assay type: cell-based; conditions: Staphylococcus aureus V41, Penicillin-resistant strain, read-out: MIC
[4] = system: Staphylococcus aureus X400; test: MIC, standard agar-dilution assay (Table IX); assay type: cell-based; conditions: Staphylococcus aureus X400, Methicillin-resistant strain, read-out: MIC
[5] = system: Staphylococcus aureus S13E; test: MIC, standard agar-dilution assay (Table IX); assay type: cell-based; conditions: Staphylococcus aureus, S13E
[6] = system: Staphylococcus epidermidis EPI1; test: MIC, standard agar-dilution assay (Table IX); assay type: cell-based
[7] = system: Staphylococcus epidermidis 222; test: MIC, standard agar-dilution assay (Table IX); assay type: cell-based; conditions: read-out: MIC
[8] = system: Streptococcus pneumoniae Park I; test: MIC, standard agar-dilution assay (Table IX); assay type: cell-based
[9] = system: Streptococcus Group D X66; test: MIC, standard agar-dilution assay (Table IX); assay type: cell-based; conditions: read-out: MIC
[10] = system: Streptococcus Group D 2041; test: MIC, standard agar-dilution assay (Table IX); assay type: cell-based; conditions: GROUPD2041, read-out: MIC
[11] = system: Haemophilus influenzae C.L.; test: MIC, standard agar-dilution assay (Table IX); assay type: cell-based; conditions: Ampicillin-sensitive strain, read-out: MIC
[12] = system: Haemophilus influenzae 76; test: MIC, standard agar-dilution assay (Table IX); assay type: cell-based; conditions: Haemophilus influenzae 76, Ampicillin-resistant strain, read-out: MIC
Escherichia coli N10 = test: MIC, standard agar-dilution assay (Table IX); assay type: cell-based; conditions: read-out: MIC
Escherichia coli EC14 = test: MIC, standard agar-dilution assay (Table IX); assay type: cell-based; conditions: read-out: MIC
Escherichia coli TEM = test: MIC, standard agar-dilution assay (Table IX); assay type: cell-based; conditions: read-out: MIC
Klebsiella X26 = test: MIC, standard agar-dilution assay (Table IX); assay type: cell-based; conditions: read-out: MIC
[13] = system: Mycoplasma gallisepticum 29C; test: MIC, broth-dilution microtiter test (Table X); assay type: cell-based; conditions: Mycoplasmoides gallisepticum, read-out: MIC
Excerpt: (§2) The MIC's in Table X were obtained using conventional broth-dilution microtiter tests.

[14] = system: Mycoplasma hyopneumoniae S5972; test: MIC, broth-dilution microtiter test (Table X); assay type: cell-based; conditions: Mesomycoplasma hyopneumoniae, read-out: MIC
Excerpt: as §2

Mycoplasma hyorhinis 29E = test: MIC, broth-dilution microtiter test (Table X); assay type: cell-based; conditions: read-out: MIC
Excerpt: as §2

Mycoplasma synoviae 40A = test: MIC, broth-dilution microtiter test (Table X); assay type: cell-based; conditions: Mycoplasmopsis synoviae, read-out: MIC
Excerpt: as §2

[15] = system: Pasteurella hemolytica 22C; test: MIC, broth-dilution microtiter test (Table X); assay type: cell-based; conditions: read-out: MIC
Excerpt: as §2

[16] = system: Pasteurella multocida 17E; test: MIC, broth-dilution microtiter test (Table X); assay type: cell-based; conditions: Bovine isolate, read-out: MIC
Excerpt: as §2

[17] = system: Pasteurella multocida 60A; test: MIC, broth-dilution microtiter test (Table X); assay type: cell-based; conditions: Avian isolate, read-out: MIC
Excerpt: as §2

Staphylococcus aureus = test: MIC, broth-dilution microtiter test (Table X); assay type: cell-based; conditions: read-out: MIC
Excerpt: as §2

Streptococcus sp. 19F = test: MIC, broth-dilution microtiter test (Table X); assay type: cell-based; conditions: read-out: MIC
Excerpt: as §2

[18] = system: Streptococcus pyogenes C203; test: ED50 in mice experimentally infected with S. pyogenes C203 (Table XI); assay type: in vivo; conditions: Streptococcus pyogenes, doses given 1 and 4 hours postinfection, read-out: ED50
Experimental: The C-20 modified derivatives of this invention have shown in vivo antimicrobial activity against experimentally-induced infections in laboratory animals. When two doses of test compound were administered to mice experimentally infected with S. pyogenes C203, the activity observed was measured as an ED50 value [effective dose in mg/kg to protect 50% of the test animals: see Warren Wick, et al., J. Bacteriol. 81, 233-235 (1961)].
^a mg/kg × 2; doses given 1 and 4 hours postinfection

[19] = Titratable groups in 66% aqueous DMF (Tables XIV-XVI); assay type: physicochemical
Excerpt: ^c Run in 66% aqueous DMF
^d Run in 66% aqueous DMF

[20] = system: Streptococcus pyogenes C203; test: MIC, standard agar-dilution assay (Table IX); assay type: cell-based; conditions: read-out: MIC
[21] = Staphylococcus epidermidis EPI1, agar-dilution, read-out: MIC
[22] = Streptococcus pneumoniae Park I, agar-dilution, read-out: MIC

SMILES | Number of Deaths/Number Treated (Pasteurella multocida [1]) | Number of Deaths/Number Treated (Pasteurella multocida [2]) | MIC (Staphyloccus aureus X1.1) [µg/mL] | MIC [3] [µg/mL] | MIC [4] [µg/mL] | MIC [5] [µg/mL] | MIC [7] [µg/mL] | MIC [9] [µg/mL] | MIC [10] [µg/mL] | MIC [11] [µg/mL] | MIC [12] [µg/mL] | MIC (Escherichia coli N10) [µg/mL] | MIC (Escherichia coli EC14) [µg/mL] | MIC (Escherichia coli TEM) [µg/mL] | MIC (Klebsiella X26) [µg/mL] | MIC [13] [µg/mL] | MIC [14] [µg/mL] | MIC (Mycoplasma hyorhinis 29E) [µg/mL] | MIC (Mycoplasma synoviae 40A) [µg/mL] | MIC [15] [µg/mL] | also measured
CCC1OC(=O)CC(O)C(C)C(OC2OC(C)C(O)C(N(C)C)C2O)C(CCN2CC3CCC(C)(C2)C3(C)C)CC(C)C(=O)C=CC(C)=CC1COC1OC(C)C(O)C(OC)C1OC (stereo not drawn) [Compound D47] | 0/10 | 6/10 |  |  |  |  |  |  |  |  |  |  |  |  |  |  |  |  |  |  | 
CCC1OC(=O)CC(O)C(C)C(OC2OC(C)C(O)C(N(C)C)C2O)C(CCN2CC3CCC(CC3)C2)CC(C)C(=O)C=CC(C)=CC1COC1OC(C)C(O)C(OC)C1OC (stereo not drawn) [Compound D14, 20-DH-DO-20-[3-azabicyclo[3.2.2]nonan-3-yl]desmycosin] | 2/10 | 0/10 | 0.25 (≈ 0.284 µM) | 0.25 (≈ 0.284 µM) | 0.5 (≈ 0.567 µM) | 0.25 (≈ 0.284 µM) | 0.12 (≈ 0.136 µM) | 4 (≈ 4.54 µM) | 4 (≈ 4.54 µM) | 4 (≈ 4.54 µM) | 8 (≈ 9.08 µM) | 32 (≈ 36.3 µM) | 32 (≈ 36.3 µM) | 16 (≈ 18.2 µM) | 8 (≈ 9.08 µM) | 1.56 (≈ 1.77 µM) | 0.78 (≈ 0.885 µM) | 50 (≈ 56.7 µM) | 0.39 (≈ 0.443 µM) | 1.56 (≈ 1.77 µM) | MIC ([6]; Staphylococcus epidermidis, EPI1): 0.5 µg/mL (≈ 0.567 µM); MIC ([8]; Streptococcus pneumoniae): 0.5 µg/mL (≈ 0.567 µM); MIC [16]: 3.12 µg/mL (≈ 3.54 µM); MIC [17]: 3.12 µg/mL (≈ 3.54 µM); MIC (Staphylococcus aureus): 0.78 µg/mL (≈ 0.885 µM); MIC (Streptococcus sp. 19F): 1.56 µg/mL (≈ 1.77 µM); ED50 ([18]; C203, Oral): 50 mg/kg; ED50 ([18]; C203, sc, Subcutaneous): 1 mg/kg; pKa ([19]; Titratable groups): 9.2; pKa ([19]; Titratable groups (first value)): 7.9
CCC1OC(=O)CC(O)C(C)C(OC2OC(C)C(O)C(N(C)C)C2O)C(CCN2CC=CCC2)CC(C)C(=O)C=CC(C)=CC1COC1OC(C)C(O)C(OC)C1OC (stereo not drawn) [Compound D22, 20-DH-DO-20-(1,2,3,6-Tetrahydropyridin-1-yl)desmycosin] | 0/10 | 5/10 | 1 (≈ 1.19 µM) | 0.5 (≈ 0.596 µM) | 1 (≈ 1.19 µM) | 0.5 (≈ 0.596 µM) | 0.25 (≈ 0.298 µM) | 8 (≈ 9.53 µM) | 8 (≈ 9.53 µM) | 16 (≈ 19.1 µM) | 8 (≈ 9.53 µM) | > 128 | > 128 | 64 (≈ 76.3 µM) | 64 (≈ 76.3 µM) | 0.78 (≈ 0.93 µM) | 1.56 (≈ 1.86 µM) | 25 (≈ 29.8 µM) | 0.78 (≈ 0.93 µM) | 3.12 (≈ 3.72 µM) | MIC [6, 21]: 0.5 µg/mL (≈ 0.596 µM); MIC [20]: 0.25 µg/mL (≈ 0.298 µM); MIC [8, 22]: 1 µg/mL (≈ 1.19 µM); MIC [16]: 12.5 µg/mL (≈ 14.9 µM); MIC [17]: 12.5 µg/mL (≈ 14.9 µM); MIC (Staphylococcus aureus): 1.56 µg/mL (≈ 1.86 µM); MIC (Streptococcus sp. 19F): 3.12 µg/mL (≈ 3.72 µM); ED50 ([18]; C203, Oral): 40 mg/kg; ED50 ([18]; C203, sc, Subcutaneous): 0.8 mg/kg
CCC1OC(=O)CC(O)C(C)C(OC2OC(C)C(O)C(N(C)C)C2O)C(CCN2CCc3ccccc3C2)CC(C)C(=O)C=CC(C)=CC1COC1OC(C)C(O)C(OC)C1OC (stereo not drawn) [Compound D12, 20-DH-DO-20-(1,2,3,4-Tetrahydroisoquinolin-2-yl)desmycosin] | 9/10 | 8/10 | 0.5 (≈ 0.562 µM) | 0.5 (≈ 0.562 µM) | 0.5 (≈ 0.562 µM) | 0.5 (≈ 0.562 µM) | 0.25 (≈ 0.281 µM) | 4 (≈ 4.5 µM) | 8 (≈ 9 µM) | 16 (≈ 18 µM) | 8 (≈ 9 µM) | > 128 | 128 (≈ 144 µM) | 64 (≈ 72 µM) | 32 (≈ 36 µM) | ≤ 0.048 | 3.12 (≈ 3.51 µM) | 12.5 (≈ 14.1 µM) | 0.39 (≈ 0.439 µM) | 3.12 (≈ 3.51 µM) | MIC [6, 21]: 0.5 µg/mL (≈ 0.562 µM); MIC [20]: 0.5 µg/mL (≈ 0.562 µM); MIC [8, 22]: 1 µg/mL (≈ 1.12 µM); MIC [16]: 6.25 µg/mL (≈ 7.03 µM); MIC [17]: 12.5 µg/mL (≈ 14.1 µM); MIC (Staphylococcus aureus): 1.56 µg/mL (≈ 1.75 µM); MIC (Streptococcus sp. 19F): 3.12 µg/mL (≈ 3.51 µM); ED50 ([18]; C203, Oral): < 6.3 mg/kg; ED50 ([18]; C203, sc, Subcutaneous): 2 mg/kg
